Target: T1, PTP-1b (Homo sapiens, UniProt P18031)
T1 construct: purchased Bioneer, Korea
T1 sequence (P18031 1-435): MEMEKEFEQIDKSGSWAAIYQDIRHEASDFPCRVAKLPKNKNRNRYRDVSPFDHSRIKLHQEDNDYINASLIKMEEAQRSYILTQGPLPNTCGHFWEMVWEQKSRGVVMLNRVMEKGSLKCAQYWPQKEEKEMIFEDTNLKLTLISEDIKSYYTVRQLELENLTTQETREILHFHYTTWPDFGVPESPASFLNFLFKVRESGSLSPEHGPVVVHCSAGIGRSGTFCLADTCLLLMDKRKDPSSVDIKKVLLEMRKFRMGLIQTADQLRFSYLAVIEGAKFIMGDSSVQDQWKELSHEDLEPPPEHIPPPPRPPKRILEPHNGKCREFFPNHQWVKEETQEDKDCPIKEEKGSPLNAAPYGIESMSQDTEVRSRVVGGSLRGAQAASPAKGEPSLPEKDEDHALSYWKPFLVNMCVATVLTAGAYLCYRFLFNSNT
Experiment: PTP-1b inhibitory activity of lobaric acid (control), pNPP assay
Format: biochemical
Settings: read-out: IC50 against PTP-1b
Method: Meanwhile, the PTP-1b inhibitory activity of lobaric acid as a control was measured. PTP-1b used in the test was purchased from BIOMOL (USA). In order to spectroscopically measure the activity of the enzyme, about 0.2 μg/Ml of PTP-1b, PTP-1b buffer (50 mM citrate, pH 6.0, 0.1M NaCl, 1 mM EDTA, 1 mM DTT), lobaric acid, 4 mM pNPP were mixed, shaken lightly, and then reacted at 37° C. for 30 minutes, after which the absorbance at 405 nm was measured.

IC50: 870 nM
SMILES: CCCCCc1c2c(cc(O)c1C(=O)O)OC(=O)c1c(cc(OC)cc1C(=O)CCCC)O2 [lobaric acid]

From patent US8846750B2, “Pharmaceutical and food compositions for preventing or treating diabetes or obesity” (Korea Ocean Research and Development Institute, priority 2010, dated 2014)
